Results: patent US11603350B2, “Compound, composition, cured object, optically anisotropic body, and reflective film” (FUJIFILM Corporation, priority 2016, dated 2023)

Experiments:
Assay type in all cases: physicochemical
[1] = Evaluation of light resistance (residual rate after ultraviolet irradiation); conditions: 5 mg in acetonitrile (20 ml), 1 cm quartz cell, ultraviolet light 3 J/cm^2; residual rate by liquid chromatography
Description: Each (5 mg) of the compounds was dissolved in acetonitrile (20 ml), sealed in a 1 cm quartz cell, and the quartz cell was irradiated with ultraviolet light under a condition of 3 J/cm^2 using EXECURE 3000-W manufactured by HOYA-SCHOTT CORPORATION, so that a residual rate of each compound was measured. Amounts (masses) of each compound before and after light irradiation were calculated using liquid chromatography. In Table 1, “A” represents a residual rate of equal to or greater than 80%, “B” represents a residual rate of equal to or greater than 50% and less than 80%, and “C” represents a residual rate of less than 50%.
The residual rate is a ratio of an amount (mass) of a compound after light irradiation to an amount (mass) of the compound before light irradiation, and can be calculated by the following expression. Residual rate (%)=(amount of compound after light irradiation/amount of compound before light irradiation)×100

[2] = Δn (refractive index anisotropy) measurement, wedge-shaped liquid crystal cell; conditions: at 550 nm and 30° C.; for compounds liable to crystallize, estimated from extrapolated values of mixtures with other liquid crystals
From the text: As a method of measuring the Δn, a method using a wedge-shaped liquid crystal cell described on page 202 of the Liquid Crystal Handbook (edited by Liquid Crystal Handbook Editing Committee, published by Maruzen Co., Ltd.) is generally used. In a case of a compound which is liable to crystallize, it is also possible to carry out evaluation with a mixture thereof with other liquid crystals and to estimate Δn from extrapolated values thereof.
The Δn corresponds to a measured value at a wavelength of 550 nm at 30° C.
Δn of each of the compounds was measured by a method using a wedge-shaped liquid crystal cell described on page 202 of the Liquid Crystal Handbook (edited by Liquid Crystal Handbook Editing Committee, published by Maruzen Co., Ltd.). In a case of the compound which is liable to crystallize, evaluation with a mixture thereof with other liquid crystals was carried out and Δn was estimated from extrapolated values thereof. The values in the table represent Δn's at 550 nm and 30° C.

[3] = Solubility measurement in ethyl methyl ketone; conditions: concentration in ethyl methyl ketone solution where the compound was completely dissolved
Description: Ethyl methyl ketone was added dropwise to each of the compounds, and a concentration (% by mass) of the compound in the obtained ethyl methyl ketone solution in a case where the compound was completely dissolved in the solution was measured as “solubility”. It is intended that a higher numerical value of solubility indicates excellent solubility in ethyl methyl ketone.

Compound	Δn [2]	Solubility [3]	Light resistance evaluation [1]
C=CC(=O)OCCCCOc1ccc(C(=O)Nc2ccc(C#Cc3ccc4nc(SCCCCOC(=O)C=C)sc4c3)cc2C(F)(F)F)cc1 [Compound a-7]	0.304	22 % by mass	A (a residual rate of equal to or greater than 80%)
C=CC(=O)OCCCCOc1ccc(C#Cc2ccc(NC(=O)c3ccc(OCCCCOC(=O)C=C)cc3)c(F)c2)cc1 [Compound a-5]	0.278	11 % by mass	A (a residual rate of equal to or greater than 80%)
C=CC(=O)OCCCCOc1ccc(C(=O)Oc2ccc(C#Cc3ccc(CCCCCCC)cc3)cc2)cc1 [Compound b-1, reference compound]	0.220	–	C (a residual rate of less than 50%)
C=CC(=O)OCCCCOc1ccc(C#Cc2ccc(C(=O)Nc3ccc(C#Cc4ccc(OCCCCOC(=O)C=C)cc4)cc3C(F)(F)F)cc2)cc1 [Compound a-8]	0.370	22 % by mass	A (a residual rate of equal to or greater than 80%)
C=CC(=O)OCCCCOc1ccc(C#Cc2ccc(NC(=O)c3ccc(OCCCCOC(=O)C=C)cc3)cc2)cc1 [Compound a-1]	0.289	5 % by mass	A (a residual rate of equal to or greater than 80%)
C=CC(=O)OCCCCOc1ccc(C#Cc2ccc(NC(=O)c3ccc(OCCCCOC(=O)C=C)cc3)c(C(F)(F)F)c2)cc1 [Compound a-6]	0.287	38 % by mass	A (a residual rate of equal to or greater than 80%)

Second part, led by results:

Δn [2]	Solubility [3]	Compound	Light resistance evaluation [1]
0.282	19 % by mass	C=CC(=O)OCCCCOc1ccc(C#Cc2ccc(NC(=O)c3ccc(OCCCCOC(=O)C=C)cc3)cc2C)cc1 [Compound a-3]	A (a residual rate of equal to or greater than 80%)
0.301	20 % by mass	C=CC(=O)OCCCCOc1ccc(C#Cc2ccc(NC(=O)c3ccc(OCCCCOC(=O)C=C)cc3)c(OC)c2)cc1 [Compound a-4]	A (a residual rate of equal to or greater than 80%)
0.280	23 % by mass	C=CC(=O)OCCCCOc1ccc(C#Cc2ccc(NC(=O)c3ccc(OCCCCOC(=O)C=C)cc3)c(C)c2)cc1 [Compound a-2]	A (a residual rate of equal to or greater than 80%)
